These results are taken from PMC11249646, “Small-Molecule Disruptors of the Interaction between Calcium- and Integrin-Binding Protein 1 and Integrin αIIbβ3 as Novel Antiplatelet Agents” (ACS Pharmacology & Translational Science, 2024).

The target in assay [1] is T1, GST-CIB1:F-αIIb interaction (Homo sapiens, UniProt Q99828).
T1 construct: made in house; host or cells: BL-21 plus RIL cells (E. coli)
T1 sequence (Q99828 1-191): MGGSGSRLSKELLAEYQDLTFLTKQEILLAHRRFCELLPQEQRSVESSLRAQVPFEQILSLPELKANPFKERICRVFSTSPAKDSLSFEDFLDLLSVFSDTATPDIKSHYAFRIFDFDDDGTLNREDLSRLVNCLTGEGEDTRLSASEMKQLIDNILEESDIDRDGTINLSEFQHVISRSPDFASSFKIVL
Briefly: Gel-based (in-gel) binding assay.

Assay [2] has as its target T2, GST-CIB1 : F-scrambled peptide (Homo sapiens, UniProt Q99828).
T2 construct: made in house; host or cells: BL-21 plus RIL cells (E. coli)
T2 sequence (Q99828 1-191): T1 sequence (Q99828 1-191)
Briefly: FP scrambled-peptide counter screen, 384-well format. The assay is classed as binding. As to conditions: for IC50: read-out: 384-well COUNTERSCREEN IC50.

For assay [3], the target named is T3, GST-CIB1 : F-αIIb peptide (Homo sapiens, UniProt Q99828).
T3 construct: made in house; host or cells: BL-21 plus RIL cells (E. coli)
T3 sequence (Q99828 1-191): T1 sequence (Q99828 1-191)
Kind of assay: FP assay in the presence of glutathione (GSH), thiol reactivity. In kind it is binding. As to conditions: for GSH/CIB1 IC50 ratio: ratio of GSH (+) IC50 to GSH (-) IC50; for GSH Assay Result: thiol reactivity call: No change / Active.

In assay [4] the target is T4, CIB1 and αIIb interaction (GST-CIB1 : F-αIIb peptide) (Homo sapiens, UniProt Q99828).
T4 construct: made in house; host or cells: BL-21 plus RIL cells (E. coli)
T4 sequence (Q99828 1-191): T1 sequence (Q99828 1-191)
Briefly: FP assay, 384-well format (screen). The assay is classed as binding. On the set-up: 384-well SCREEN Efficacy (%): concentration or dose not given beside the values. As to conditions: for IC50: read-out: 384-well SCREEN IC50.

Assay [5] addresses T2, GST-CIB1 : F-scrambled peptide. Briefly: FP scrambled-peptide counter screen, 1536-well format. The assay is classed as binding. As to conditions: for IC50: read-out: COUNTERSCREEN IC50.
The target of assay [6] is T5, CIB1 and αIIb interaction (CIB1-GST : F-αIIb peptide) (Homo sapiens, UniProt Q99828).
T5 construct: made in house; host or cells: BL-21 plus RIL cells (E. coli)
T5 sequence (Q99828 1-191): T1 sequence (Q99828 1-191)
Kind of assay: FP assay, 1536-well qHTS format (primary and confirmatory screen). In kind it is binding.

The mark [7] stands for this setting: 1 μM GST-CIB1, 400 nM F-αIIb, 60 μM, 1:2, 4-points.
Where [8] appears, read: 1 μM GST-CIB1, 400 nM F-αIIb, concentrations tested 60, 30, 15, 7.5.
Setting [9] is: F-scrambled peptide, *: Curve in opposite direction.
Where [10] appears, read: FP assay in the presence of glutathione (GSH +), read-out: GSH (+) Assay IC50.
Where [11] appears, read: FP assay without glutathione (GSH -), read-out: GSH (-) Assay IC50.
Setting [12] is: scrambled-peptide counterscreen.
Where [13] appears, read: scrambled-peptide counterscreen, YES/NO call.
Where [14] appears, read: scrambled-peptide counterscreen, qHTS curve class.
Where [15] appears, read: confirmatory screen, YES/NO call.
Where [16] appears, read: confirmatory screen, qHTS curve class, negative sign = inhibitory curve.
Setting [17] is: confirmatory screen, negative = inhibition.
Setting [18] is: confirmatory screen, read-out: CONFIRMATORY SCREEN IC50.
The mark [19] stands for this setting: qHTS FP screen hits, Table S2, negative = inhibition.
The mark [20] stands for this setting: qHTS FP screen hits, Table S2, one class per curve where COUNT > 1, negative sign = inhibitory curve.

Where two headings read alike, the source gives them in different places. Bounds are passed on as bounds.

Take `CC(C)=CCC[C@]1(C)C=Cc2c(O)c3c(c(CC=C(C)C)c2O1)O[C@]12C(=C[C@@H]4CC1C(C)(C)O[C@@]2(C/C=C(/C)C(=O)O)C4=O)C3=O` [NCGC00485239-01]: the “Active in Gel Assay?” value in assay [1] (setting [7]) is “YES”. Besides, the “Inhibited concentration in gel (µM)” value in assay [1] (setting [8]) is 60,30 µM. Also, the “384-well COUNTERSCREEN Efficacy (%)” value in assay [2] (F-scrambled peptide) amounted to 40%. In addition, the “384-well COUNTERSCREEN Confirm?” value in assay [2] (setting [9]) is “YES”. Moreover, the IC50 in assay [2] (F-scrambled peptide) was more than 120 µM; in assay [3] (setting [10]), 2.4 µM; in assay [3] (setting [11]), 2 µM; in assay [4] (F-αIIb peptide), 3.6 µM; in assay [5] (setting [12]), 12.6 µM; in assay [6] (setting [18]), 8.9 µM. Besides, the IC50 in assay [6] (qHTS FP screen hits, Table S2, read-out: IC50) was found to be 11.2 µM. Moreover, in assay [3], the “GSH/CIB1 IC50 ratio” value is 1.2. In addition, the “GSH Assay Result” value in assay [3] was “No change”. The “384-well SCREEN Efficacy (%)” value in assay [4] (F-αIIb peptide) was 60%. Moreover, the “384-well SCREEN Confirm?” value in assay [4] (F-αIIb peptide, YES/NO) is listed as “YES”. In addition, the “COUNTERSCREEN Efficacy (%)” value in assay [5] (setting [12]) came out at 32%. Moreover, the “COUNTERSCREEN Confirm?” value in assay [5] (setting [13]) was “YES”. Also, the “COUNTERSCREEN Curve Class” value in assay [5] (setting [14]) came to 1.4. For the same compound, the “CONFIRMATORY SCREEN Confirm?” value in assay [6] (setting [15]) is given as “YES”. The “CONFIRMATORY SCREEN Curve Class” value in assay [6] (setting [16]) is -1.2. Also, in assay [6] (setting [17]), the “CONFIRMATORY SCREEN Efficacy (%)” value is given as -54%. For the same compound, the “Efficacy (%)” value in assay [6] (setting [19]) was -34%. The “Curve Class” value in assay [6] (setting [20]) is recorded as -1.2.

Turning to “thimerosal [NCGC00178879-04, reference compound]”, in assay [1], the “Active in Gel Assay?” value is on record as “YES”. In assay [2], the “384-well COUNTERSCREEN Confirm?” value is reported as “YES”, the “384-well COUNTERSCREEN Efficacy (%)” value was found to be 45% and the IC50 is 7.1 µM. Further, the IC50 in assay [3] (read-out: GSH (+) Assay IC50) was determined as 35.6 µM. The IC50 in assay [3] (read-out: GSH (-) Assay IC50) was determined as 0.316 µM. Further, in assay [4], the “384-well SCREEN Confirm?” value was “YES”, the “384-well SCREEN Efficacy (%)” value was determined as 77% and the half-maximal inhibitory concentration (IC50) amounted to 2.8 µM. Also, in assay [5], the “COUNTERSCREEN Confirm?” value is “YES”, the “COUNTERSCREEN Curve Class” value is given as 3 and the “COUNTERSCREEN Efficacy (%)” value stood at 150%. Also, in assay [6], the “CONFIRMATORY SCREEN Confirm?” value was “YES”, the “CONFIRMATORY SCREEN Curve Class” value is reported as -1.2, the “CONFIRMATORY SCREEN Efficacy (%)” value is -53% and the “Curve Class” value was -1.2. For the same compound, in assay [6], the “Efficacy (%)” value is -74%. In addition, the IC50 in assay [6] (read-out: CONFIRMATORY SCREEN IC50) is 17.8 µM. Besides, the IC50 in assay [6] (read-out: IC50) is 22.4 µM.

With `O=C1C(I)=CC(=C(c2cc(I)c([O-])c(I)c2)c2ccccc2C(=O)[O-])C=C1I.[Na+].[Na+]` [NCGC00161636-02], in assay [1] (setting [7]), the “Active in Gel Assay?” value is reported as “YES”. In addition, the “Inhibited concentration in gel” value in assay [1] (setting [8]) was 60 µM. Further, in assay [2] (F-scrambled peptide), the “384-well COUNTERSCREEN Efficacy (%)” value is given as 105%. For the same compound, the “384-well COUNTERSCREEN Confirm?” value in assay [2] (setting [9]) is “YES”. In addition, the IC50 in assay [2] (F-scrambled peptide) came out at 14.1 µM; in assay [3] (setting [10]), 28.2 µM; in assay [3] (setting [11]), 15.9 µM; in assay [4] (F-αIIb peptide) it was 31.6 µM; in assay [5] (setting [12]) it was 89.1 µM; in assay [6] (IC50 [μM], qHTS FP screen hits, Table S2), 17.8 µM. Further, the IC50 in assay [6] (setting [18]) amounted to 11.2 µM. Moreover, the “GSH Assay Result” value in assay [3] was “No change”. The “384-well SCREEN Efficacy (%)” value in assay [4] (F-αIIb peptide) amounted to 78%. In addition, in assay [4] (F-αIIb peptide, YES/NO), the “384-well SCREEN Confirm?” value is on record as “YES”. Moreover, the “COUNTERSCREEN Efficacy (%)” value in assay [5] (setting [12]) is given as 435%. For the same compound, the “COUNTERSCREEN Confirm?” value in assay [5] (setting [13]) was “YES”. Besides, the “CONFIRMATORY SCREEN Confirm?” value in assay [6] (setting [15]) is given as “YES”. The “CONFIRMATORY SCREEN Curve Class” value in assay [6] (setting [16]) is reported as -1.2. Moreover, the “CONFIRMATORY SCREEN Efficacy (%)” value in assay [6] (setting [17]) was -74%. In addition, the “Efficacy (%)” value in assay [6] (setting [19]) is given as -47%. Further, the “Curve Class” value in assay [6] (setting [20]) is -1.2.

Consider `O=c1[nH]sc2cc(Cl)ccc12` [NCGC00262908-01, ticlatone, reference compound], for which, in assay [1] (setting [7]), the “Active in Gel Assay?” value is “YES”. Further, in assay [2] (F-scrambled peptide), the “384-well COUNTERSCREEN Efficacy (%)” value is 95%. For the same compound, the “384-well COUNTERSCREEN Confirm?” value in assay [2] (setting [9]) was “YES”. In addition, the IC50 in assay [2] (F-scrambled peptide) is more than 120 µM; in assay [3] (setting [10]), 10.3 µM; in assay [3] (setting [11]), 0.234 µM; in assay [4] (F-αIIb peptide), 0.562 µM; in assay [6] (setting [18]), 2.8 µM; in assay [6] (qHTS primary screen hits, Table S2, read-out: IC50), 3.5 µM. Further, in assay [3], the “GSH/CIB1 IC50 ratio” value came to 44.0. In addition, in assay [3] (with vs without 10 μM reduced GSH), the “shift in potency in the presence of GSH” value is “right-shift in potency”. The “384-well SCREEN Efficacy (%)” value in assay [4] (F-αIIb peptide) turned out to be 79%. Also, the “384-well SCREEN Confirm?” value in assay [4] (F-αIIb peptide, YES/NO) is listed as “YES”. Also, the “COUNTERSCREEN Efficacy (%)” value in assay [5] (setting [12]) is 10%. Further, the “COUNTERSCREEN Confirm?” value in assay [5] (setting [13]) is “YES”. Moreover, the “COUNTERSCREEN Curve Class” value in assay [5] (setting [14]) came out at 4. In addition, in assay [6] (setting [15]), the “CONFIRMATORY SCREEN Confirm?” value is “YES”. Moreover, the “CONFIRMATORY SCREEN Curve Class” value in assay [6] (setting [16]) is -1.2. The “CONFIRMATORY SCREEN Efficacy (%)” value in assay [6] (setting [17]) is -50%. The “Efficacy (%)” value in assay [6] (qHTS primary screen hits, Table S2, negative = inhibition) was -68%. Besides, in assay [6] (qHTS primary screen hits, Table S2, negative sign = inhibitory curve), the “Curve Class” value is -1.2.
